In US20240368120A1 (Terns Pharmaceuticals, Inc., priority 2023, published 2024) one finds EC50 and Emax data, which are given here for 23 molecules.

This test addresses T1, human GLP-1R receptor (Homo sapiens, UniProt P43220).
T1 construct: expressed in transfected cells
In words: GLP-1R low expression cell assay (cAMP TR-FRET, CHO-K1_hGLP-1Rlow_clone10 cells). The test is classed as cell-based. The conditions noted are these: for EC50: cAMP TR-FRET, 30 min at 25° C.; for Emax: maximum activation relative to control GLP-1 peptide agonist. An outline of the steps:
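CHO-K1 cells stably expressing low surface human GLP-1R (clone10), 1,000 cells/well, exposed to 10-point 3-fold compound dilutions for 30 min at 25 °C. cAMP measured by TR-FRET (Eu-cAMP tracer/ULight-anti-cAMP, 15 min). EC50 from Hill fit of duplicate percent activation relative to a parallel GLP-1 control agonist.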

Where only a bound is given, the exact number is not on record here.

T1 sequence (P43220 24-463): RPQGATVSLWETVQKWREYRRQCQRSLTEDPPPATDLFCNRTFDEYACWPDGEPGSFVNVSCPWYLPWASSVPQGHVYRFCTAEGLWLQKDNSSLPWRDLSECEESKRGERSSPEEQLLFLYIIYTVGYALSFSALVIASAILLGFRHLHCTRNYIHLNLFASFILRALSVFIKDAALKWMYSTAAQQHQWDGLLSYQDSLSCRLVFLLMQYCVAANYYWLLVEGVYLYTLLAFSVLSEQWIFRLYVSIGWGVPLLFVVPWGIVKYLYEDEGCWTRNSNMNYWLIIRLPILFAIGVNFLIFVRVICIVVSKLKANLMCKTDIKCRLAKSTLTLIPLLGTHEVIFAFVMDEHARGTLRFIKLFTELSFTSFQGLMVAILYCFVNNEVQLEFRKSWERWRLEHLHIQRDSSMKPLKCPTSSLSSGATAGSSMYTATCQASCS

A word on the EC50: it is the concentration giving half of the maximal effect. Higher therefore signals a less potent agent. Broadly, the Emax is the size of the effect at its maximum, as opposed to the concentration needed. The molecule `Cn1c(CN2CCC(c3ccc(F)c(OCc4ccc(Cl)cc4F)n3)CC2)nc2c(OC(F)F)cc(C(=O)O)cc21` [Compound 242, 2-((4-(6-((4-Chloro-2-fluorobenzyl)oxy)-5-fluoropyridin-2-yl)piperidin-1-yl)methyl)-4-(difluoromethoxy)-1-methyl-1H-benzo[d]imidazole-6-carboxylic acid] had an EC50 of 10 to 100 nM and a maximum response (Emax) greater than 85%.

The molecule `Cn1c(CN2CCC(c3cccc(OCc4ccc(Cl)cc4F)n3)CC2)nc2c(OC(F)CF)cc(C(=O)O)cc21` (single isomer, unassigned) [Compound 329] yielded an EC50 of less than 10 nM and an Emax greater than 85%.

Take `Cn1c(CN2CCC(c3cccc(OCc4ccc(Cl)cn4)n3)CC2)nc2c(OC(F)F)cc(C(=O)O)cc21` [Compound 247, 2-((4-(6-((5-Chloropyridin-2-yl)methoxy)pyridin-2-yl)piperidin-1-yl)methyl)-4-(difluoromethoxy)-1-methyl-1H-benzo[d]imidazole-6-carboxylic acid]: the EC50 is 100 to 1000 nM and the maximal effect (Emax) was greater than 85%.

Regarding `O=C(O)c1ccc2nc(CN3CCC(c4cccc(OCc5ccc(Cl)cc5F)n4)CC3)[nH]c2c1O` [Compound 204, 2-((4-(6-((4-Chloro-2-fluorobenzyl)oxy)pyridin-2-yl)piperidin-1-yl)methyl)-7-hydroxy-1H-benzo[d]imidazole-6-carboxylic acid], the 50% effective concentration (EC50) is greater than 1000 nM and the maximal effect (Emax) was greater than 85%.

In turn, `COc1cc(C(=O)O)cc2c1nc(CN1CCC(c3cccc4c3O[C@@](C)(c3ccc(Cl)cn3)O4)CC1)n2C(C)C` [Compound 86, (S)-2-((4-(2-(5-Chloropyridin-2-yl)-2-methylbenzo[d][1,3]dioxol-4-yl)piperidin-1-yl)methyl)-1-isopropyl-4-methoxy-1H-benzo[d]imidazole-6-carboxylic acid] yielded an EC50 of 100 to 1000 nM and a maximal response (Emax) greater than 85%.

Regarding `CCOc1cc(-c2nnn[nH]2)cc2c1nc(CN1CCC(c3cccc(OCc4ccc(C#N)cc4F)n3)CC1)n2C` [Compound 273, 4-(((6-(1-((4-ethoxy-1-methyl-6-(1H-tetrazol-5-yl)-1H-benzo[d]imidazol-2-yl)methyl)piperidin-4-yl)pyridin-2-yl)oxy)methyl)-3-fluorobenzonitrile], the EC50 is less than 10 nM and the Emax is greater than 85%.

`COc1cc(C(=O)O)c(F)c2c1nc(CN1CCC(c3ccc(F)c(OCc4ccc(C#N)cc4F)c3)CC1)n2C` [Compound 339, 2-((4-(3-((4-Cyano-2-fluorobenzyl)oxy)-4-fluorophenyl)piperidin-1-yl)methyl)-7-fluoro-4-methoxy-1-methyl-1H-benzo[d]imidazole-6-carboxylic acid] returned an EC50 of 100 to 1000 nM and a maximal effect (Emax) greater than 85%.

In turn, `[2H]C([2H])([2H])Oc1cc(C(=O)O)cc2c1nc(CN1CCC(c3cccc(OCc4ccc(C#N)cc4F)n3)CC1)n2C[C@@H]1CCO1` [Compound 108, (S)-2-((4-(6-((4-Cyano-2-fluorobenzyl)oxy)pyridin-2-yl)piperidin-1-yl)methyl)-4-(methoxy-d3)-1-(oxetan-2-ylmethyl)-1H-benzo[d]imidazole-6-carboxylic acid] showed a concentration giving a half-maximal response (EC50) of less than 10 nM and a maximum response (Emax) greater than 85%.

For the molecule `[2H]C([2H])(Oc1cccc(C2CCN(C([2H])([2H])c3nc4c(OC(F)F)cc(C(=O)O)cc4n3C)CC2)n1)c1ccc(Cl)cc1F` [Compound 321, 2-((4-(6-((4-Chloro-2-fluorophenyl)methoxy-d2)pyridin-2-yl)piperidin-1-yl)methyl-d2)-4-(difluoromethoxy)-1-methyl-1H-benzo[d]imidazole-6-carboxylic acid], the half-maximal effective concentration (EC50) was 10 to 100 nM and the Emax was greater than 85%.

Turning to `Cn1c(Cc2ccc(-c3cccc(OCc4ccc(C#N)cc4F)n3)cc2F)nc2c(OC(F)F)cc(C(=O)O)cc21` [Compound 120, 2-(4-(6-((4-Cyano-2-fluorobenzyl)oxy)pyridin-2-yl)-2-fluorobenzyl)-4-(difluoromethoxy)-1-methyl-1H-benzo[d]imidazole-6-carboxylic acid], the concentration giving a half-maximal response (EC50) is less than 10 nM and the Emax was greater than 85%.

`Cn1c(CN2CCC(c3cccc(OCc4ccc(Cl)cc4F)n3)CC2)nc2c(OC[C@@H]3CCO3)cc(C(=O)O)cc21` [Compound 211, (S)-2-((4-(6-((4-Chloro-2-fluorobenzyl)oxy)pyridin-2-yl)piperidin-1-yl)methyl)-1-methyl-4-(oxetan-2-ylmethoxy)-1H-benzo[d]imidazole-6-carboxylic acid]: the EC50 fell in the range of 10 to 100 nM and the Emax is greater than 85%.

Take `CC(F)(F)c1cc(C(=O)O)cc2c1nc(CN1CCC(c3cccc4c3O[C@@](C)(c3ccc(Cl)cn3)O4)CC1)n2C[C@@H]1CCO1` [Compound 57, 2-((4-((S)-2-(5-Chloropyridin-2-yl)-2-methylbenzo[d][1,3]dioxol-4-yl)piperidin-1-yl)methyl)-4-(1,1-difluoroethyl)-1-(((S)-oxetan-2-yl)methyl)-1H-benzo[d]imidazole-6-carboxylic acid]: the EC50 is less than 10 nM.

In turn, `COCCOc1cc(C(=O)O)cc2c1nc(CN1CCC(c3cccc4c3O[C@@](C)(c3ccc(Cl)cn3)O4)CC1)n2C` [Compound 30, (S)-2-((4-(2-(5-Chloropyridin-2-yl)-2-methylbenzo[d][1,3]dioxol-4-yl)piperidin-1-yl)methyl)-4-(2-methoxyethoxy)-1-methyl-1H-benzo[d]imidazole-6-carboxylic acid] showed an EC50 of less than 10 nM.

Take `Cn1c(CN2CCC(c3cccc(OCc4ccc(C(F)(F)F)cn4)n3)CC2)nc2c(OC(F)F)cc(C(=O)O)cc21` [Compound 229, 4-(Difluoromethoxy)-1-methyl-2-((4-(6-((5-(trifluoromethyl)pyridin-2-yl)methoxy)pyridin-2-yl)piperidin-1-yl)methyl)-1H-benzo[d]imidazole-6-carboxylic acid]: the concentration giving a half-maximal response (EC50) lay in the range of 100 to 1000 nM and the Emax is greater than 85%.

`O=C(O)c1cc(OC(F)F)c2nc(CN3CCC(c4cccc(OCc5ccc(Cl)cc5F)n4)CC3)n(CF)c2c1` [Compound 208, 2-((4-(6-((4-Chloro-2-fluorobenzyl)oxy)pyridin-2-yl)piperidin-1-yl)methyl)-4-(difluoromethoxy)-1-(fluoromethyl)-1H-benzo[d]imidazole-6-carboxylic acid] had an EC50 of 10 to 100 nM and an Emax greater than 85%.

As for `COc1cc(C(=O)O)cc2c1nc(N(C)[C@H]1CC[C@H](c3cccc(OCc4ccc(Cl)cc4F)n3)CC1)n2C` [Compound 363, 2-(((1r,4r)-4-(6-((4-Chloro-2-fluorobenzyl)oxy)pyridin-2-yl)cyclohexyl)(methyl)amino)-4-methoxy-1-methyl-1H-benzo[d]imidazole-6-carboxylic acid], the EC50 was less than 10 nM and the Emax was greater than 85%.

In turn, `[2H]C([2H])(C)Oc1cc(C(=O)O)cc2c1nc(CN1CCC(c3cccc(OC([2H])([2H])c4ccc(C#N)cc4F)n3)CC1)n2C` [Compound 285, 2-((4-(6-((4-Cyano-2-fluorophenyl)methoxy-d2)pyridin-2-yl)piperidin-1-yl)methyl)-4-(ethoxy-1,1-d2)-1-methyl-1H-benzo[d]imidazole-6-carboxylic acid] gave an EC50 of less than 10 nM and a maximal effect (Emax) greater than 85%.

`Cn1c(CN2CCC(c3cccc(F)c3OCc3ccc(Cl)cc3F)CC2)nc2c(OC(F)F)cc(C(=O)O)cc21` [Compound 140, 2-((4-(2-((4-Chloro-2-fluorobenzyl)oxy)-3-fluorophenyl)piperidin-1-yl)methyl)-4-(difluoromethoxy)-1-methyl-1H-benzo[d]imidazole-6-carboxylic acid] displayed an EC50 of 10 to 100 nM and an Emax greater than 85%.

`Cn1c(CN2CCC(c3cccc(OCc4ccc(Cl)cc4F)n3)CC2)nc2c(OC(F)F)cc(-c3cc(O)no3)cc21` [Compound 316, 5-(2-((4-(6-((4-Chloro-2-fluorobenzyl)oxy)pyridin-2-yl)piperidin-1-yl)methyl)-4-(difluoromethoxy)-1-methyl-1H-benzo[d]imidazol-6-yl) isoxazol-3-ol] had a concentration for a half-maximal effect (EC50) of 100 to 1000 nM and an Emax of 50 to 85%.

Regarding `Cn1c(N[C@H]2CC[C@H](c3cccc(OCc4ccc(Cl)cc4F)n3)CC2)nc2c(OC(F)F)cc(C(=O)O)cc21` [Compound 371, 2-(((1r,4r)-4-(6-((4-Chloro-2-fluorobenzyl)oxy)pyridin-2-yl)cyclohexyl)amino)-4-(difluoromethoxy)-1-methyl-1H-benzo[d]imidazole-6-carboxylic acid], the 50% effective concentration (EC50) is greater than 1000 nM and the Emax was greater than 85%.

With `Cn1c(CN2CCC(c3cccc(OCc4ccc(F)cc4F)n3)CC2)nc2c(OC(F)F)cc(C(=O)O)cc21` [Compound 250, 2-((4-(6-((2,4-Difluorobenzyl)oxy)pyridin-2-yl)piperidin-1-yl)methyl)-4-(difluoromethoxy)-1-methyl-1H-benzo[d]imidazole-6-carboxylic acid], the EC50 fell in the range of 10 to 100 nM.

In turn, `COc1cc(C(=O)O)c(F)c2c1nc(CN1CCC(c3cccc(OCc4ccc(C#N)cc4F)n3)CC1)n2C[C@@H]1CCO1` [Compound 117, (S)-2-((4-(6-((4-Cyano-2-fluorobenzyl)oxy)pyridin-2-yl)piperidin-1-yl)methyl)-7-fluoro-4-methoxy-1-(oxetan-2-ylmethyl)-1H-benzo[d]imidazole-6-carboxylic acid] registered a concentration for a half-maximal effect (EC50) of less than 10 nM and an Emax greater than 85%.

For `C[C@@H](c1nc2c(OC(F)F)cc(C(=O)O)cc2n1C)N1CCC(c2cccc(OCc3ccc(C#N)cc3F)n2)CC1` [Compound 119, (S)-2-(1-(4-(6-((4-Cyano-2-fluorobenzyl)oxy)pyridin-2-yl)piperidin-1-yl)ethyl)-4-(difluoromethoxy)-1-methyl-1H-benzo[d]imidazole-6-carboxylic acid], the EC50 is 10 to 100 nM and the maximal response (Emax) lay in the range of 50 to 85%.
